Experimental data taken from patent publication US8846698B2, “Pyrrolo[2,3-d]pyrimidine tropomysin-related kinase inhibitors” (Pfizer Limited, priority 2011, dated 2014).

Target: TRKA (Homo sapiens (Human), UniProt P04629)
Experiment: Isolated TRK enzyme assay (HTRF KinEASE-TK), TRKA
Format: biochemical
Conditions: read-out: Trka enzyme (IC50)

TRKA, sequence (P04629 441-796): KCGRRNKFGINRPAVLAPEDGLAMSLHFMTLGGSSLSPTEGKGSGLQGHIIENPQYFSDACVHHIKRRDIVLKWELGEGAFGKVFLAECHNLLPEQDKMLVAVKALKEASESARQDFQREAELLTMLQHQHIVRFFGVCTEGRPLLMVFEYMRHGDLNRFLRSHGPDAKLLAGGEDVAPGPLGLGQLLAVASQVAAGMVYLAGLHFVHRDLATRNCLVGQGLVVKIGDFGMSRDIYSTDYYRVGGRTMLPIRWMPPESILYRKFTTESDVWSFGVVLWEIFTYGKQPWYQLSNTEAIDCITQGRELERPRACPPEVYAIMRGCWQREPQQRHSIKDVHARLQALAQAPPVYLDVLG

With O=C(Nc1cncc(C(=O)c2cn(C(CO)CO)c3ncncc23)c1)c1cc(F)cc(C(F)(F)F)c1 [Example 281, 3-fluoro-N-[5-({7-[2-hydroxy-1-(hydroxymethyl)ethyl]-7H-pyrrolo[2,3-d]pyrimidin-5-yl}carbonyl)pyridin-3-yl]-5-(trifluoromethyl)benzamide] the IC50 was 0.161 µM.

CC(C)n1cc(C(=O)c2cncc(NC(=O)c3ccc4cnnc-4[nH]3)c2)c2cncnc21 [Example 506, Pyrazolo[3,4-b]pyridine-6-carboxylic acid [5-(7-isopropyl-7H-pyrrolo[2,3-d]pyrimidine-5-carbonyl)-pyridin-3-yl]-amide] was tested, and the IC50 was 0.067 µM.

Cn1cc(C(=O)c2cncc(NC(=O)CCc3ccccc3Cl)c2)c2cncnc21 [Example 198, 3-(2-chlorophenyl)-N-{5-[(7-methyl-7H-pyrrolo[2,3-d]pyrimidin-5-yl)carbonyl]pyridin-3-yl}propanamide] showed an IC50 of 2.35 µM.

CC(C)n1cc(C(=O)c2cncc(NC(=O)Cc3cn(Cc4ccccc4)nn3)c2)c2cncnc21 [Example 146, 2-(1-benzyl-1H-1,2,3-triazol-4-yl)-N-{5-[(7-isopropyl-7H-pyrrolo[2,3-d]pyrimidin-5-yl)carbonyl]pyridin-3-yl}acetamide] showed an IC50 of 0.573 µM.

Cc1ocnc1C(=O)Nc1cncc(C(=O)c2cn(C(C)C)c3ncncc23)c1 [Example 477, 5-Methyl-oxazole-4-carboxylic acid [5-(7-isopropyl-7H-pyrrolo[2,3-d]pyrimidine-5-carbonyl)-pyridin-3-yl]-amide] was tested, and the IC50 was 3.03 µM.

CC(C)n1cc(C(=O)c2cncc(NC(=O)c3cnc4ccsc4c3)c2)c2cncnc21 [Example 414, Thieno[3,2-b]pyridine-6-carboxylic acid [5-(7-isopropyl-7H-pyrrolo[2,3-d]pyrimidine-5-carbonyl)-pyridin-3-yl]-amide] was tested, and the IC50 was 0.158 µM.

Cn1cc(C(=O)c2cncc(NC(=O)C3(c4ccccc4)CC3)c2)c2cncnc21 [Example 336, N-{5-[(7-methyl-7H-pyrrolo[2,3-d]pyrimidin-5-yl)carbonyl]pyridin-3-yl}-1-phenylcyclopropanecarboxamide] was tested, and the IC50 was 9.8 µM.

Compound CS(=O)(=O)Cn1cc(C(=O)c2cncc(NC(=O)Cc3ccc(Cl)cc3)c2)c2cncnc21 [Example 314, 2-(4-chlorophenyl)-N-[5-({7-[(methylsulfonyl)methyl]-7H-pyrrolo[2,3-d]pyrimidin-5-yl}carbonyl)pyridin-3-yl]acetamide] has an IC50 of 0.835 µM.

Compound CC(C)n1ncc(CC(=O)Nc2cncc(C(=O)c3cn(C(C)C)c4nc(N)ncc34)c2)c1C(F)(F)F [Example 251, N-{5-[(2-amino-7-isopropyl-7H-pyrrolo[2,3-d]pyrimidin-5-yl)carbonyl]pyridin-3-yl}-2-[1-isopropyl-5-(trifluoromethyl)-1H-pyrazol-4-yl]acetamide] has an IC50 of 0.0331 µM.

In the case of CC(C)n1cc(C(=O)c2cncc(NC(=O)c3ccc4[nH]ccc4n3)c2)c2cncnc21 [Example 447, 1H-Pyrrolo[3,2-b]pyridine-5-carboxylic acid [5-(7-isopropyl-7H-pyrrolo[2,3-d]pyrimidine-5-carbonyl)-pyridin-3-yl]amide], the IC50 is reported as 0.919 µM.

CC(C)(C)n1cc(C(=O)c2cncc(NC(=O)Cc3ccc(F)cc3)c2)c2cncnc21 [Example 546, N-[5-(7-tert-Butyl-7H-pyrrolo[2,3-d]pyrimidine-5-carbonyl)-pyridin-3-yl]-2-(4-fluoro-phenyl)-acetamide] was tested, and the IC50 was 0.00534 µM.

O=C(Cc1ccc(Cl)cc1)Nc1cncc(C(=O)c2cn(C3(CO)COC3)c3ncncc23)c1 [Example 299, 2-(4-Chloro-phenyl)-N-{5-[7-(3-hydroxymethyl-oxetan-3-yl)-7H-pyrrolo[2,3-d]pyrimidine-5-carbonyl]-pyridin-3-yl}-acetamide] was tested, and the IC50 was 0.539 µM.

CC1(n2cc(C(=O)c3cncc(NC(=O)Cc4ccc(C(F)(F)F)cc4)c3)c3cncnc32)COC1 [Example 571, N-{5-[7-(3-Methyl-oxetan-3-yl)-7H-pyrrolo[2,3-d]pyrimidine-5-carbonyl]-pyridin-3-yl}-2-(4-trifluoromethyl-phenyl)-acetamide] was tested, and the IC50 was 0.00292 µM.

CC(C)n1cc(C(=O)c2cncc(NC(=O)c3cccc(Cl)c3)c2)c2cncnc21 [Example 343, 3-chloro-N-(5-{[7-(propan-2-yl)-7H-pyrrolo[2,3-d]pyrimidin-5-yl]carbonyl}pyridin-3-yl)benzamide] gave an IC50 of 0.0539 µM.

In the case of CC(C)n1cc(C(=O)c2cncc(NC(=O)c3ccnc4[nH]ccc34)c2)c2cncnc21 [Example 407, 1H-Pyrrolo[2,3-b]pyridine-4-carboxylic acid [5-(7-isopropyl-7H-pyrrolo[2,3-d]pyrimidine-5-carbonyl)-pyridin-3-yl]-amide], the IC50 is reported as 2.6 µM.

In the case of CC(C)n1cc(C(=O)c2cncc(NC(=O)C(O)c3ccccc3)c2)c2cncnc21 (stereo not drawn) [Example 518, 2-Hydroxy-N-[5-(7-isopropyl-7H-pyrrolo[2,3-d]pyrimidine-5-carbonyl)-pyridin-3-yl]-2-phenyl-acetamide], the IC50 is reported as 0.0073 µM.

CC(C)n1cc(C(=O)c2cncc(NC(=O)C(N)c3ccc(Cl)cc3)c2)c2cncnc21 (stereo not drawn) [Example 350, 2-amino-2-(4-chlorophenyl)-N-(5-(7-isopropyl-7H-pyrrolo[2,3-d]pyrimidine-5-carbonyl)pyridin-3-yl)acetamide] showed an IC50 of 0.153 µM.

Compound CC(C)n1cc(C(=O)c2cncc(NC(=O)Cc3ccc4ocnc4c3)c2)c2cnc(N)nc21 [Example 246, N-{5-[(2-amino-7-isopropyl-7H-pyrrolo[2,3-d]pyrimidin-5-yl)carbonyl]pyridin-3-yl}-2-(1,3-benzoxazol-5-yl)acetamide] has an IC50 of 0.0356 µM.

With CC(C)n1cc(C(=O)c2cncc(NC(=O)Cc3c[nH]c4ccccc34)c2)c2cncnc21 [Example 132, 2-(1H-indol-3-yl)-N-{5-[(7-isopropyl-7H-pyrrolo[2,3-d]pyrimidin-5-yl)carbonyl]pyridin-3-yl}acetamide] the IC50 was 0.131 µM.

Compound CC(C)(CO)n1cc(C(=O)c2cncc(NC(=O)Cc3cccc(C(F)(F)F)c3)c2)c2cnc(N)nc21 [Example 256, N-(5-{[2-amino-7-(2-hydroxy-1,1-dimethylethyl)-7H-pyrrolo[2,3-d]pyrimidin-5-yl]carbonyl}pyridin-3-yl)-2-[3-(trifluoromethyl)phenyl]acetamide] has an IC50 of 0.00109 µM.

With CC(C)n1cc(C(=O)c2cncc(NC(=O)Cc3nn(C)c4cc(Cl)ccc34)c2)c2cncnc21 [Example 147, 2-(6-chloro-1-methyl-1H-indazol-3-yl)-N-{5-[(7-isopropyl-7H-pyrrolo[2,3-d]pyrimidin-5-yl)carbonyl]pyridin-3-yl}acetamide] the IC50 was 0.0764 µM.

Compound CC(CO)(CO)n1cc(C(=O)c2cncc(NC(=O)Cc3cccc(C(F)(F)F)c3)c2)c2cncnc21 [Example 238, N-[5-({7-[2-hydroxy-1-(hydroxymethyl)-1-methylethyl]-7H-pyrrolo[2,3-d]pyrimidin-5-yl}carbonyl)pyridin-3-yl]-2-[3-(trifluoromethyl)phenyl]acetamide] has an IC50 of 0.00936 µM.

With CC(C)n1cc(C(=O)c2cncc(NC(=O)Cc3cccc(C(F)(F)F)c3)c2)c2cncnc21 [Example 66, N-{5-[(7-isopropyl-7H-pyrrolo[2,3-d]pyrimidin-5-yl)carbonyl]pyridin-3-yl}-2-[3-(trifluoromethyl)phenyl]acetamide] the IC50 was 0.00355 µM.

CC(C)n1cc(C(=O)c2cncc(NC(=O)Cc3ccc4ocnc4c3)c2)c2cncnc21 [Example 89, 2-(1,3-benzoxazol-5-yl)-N-{5-[(7-isopropyl-7H-pyrrolo[2,3-d]pyrimidin-5-yl)carbonyl]pyridin-3-yl}acetamide] showed an IC50 of 0.0217 µM.

In the case of CC(C)n1cc(C(=O)c2cncc(NC(=O)CN3CCc4cccnc4C3)c2)c2cncnc21 [Example 517, 2-(5,8-Dihydro-6H-[1,7]naphthyridin-7-yl)-N-[5-(7-isopropyl-7H-pyrrolo[2,3-d]pyrimidine-5-carbonyl)-pyridin-3-yl]-acetamide], the IC50 is reported as 4.39 µM.

Cc1noc2ncc(C(=O)Nc3cncc(C(=O)c4cn(C(C)C)c5ncncc45)c3)cc12 [Example 508, 3-Methyl-isoxazolo[5,4-b]pyridine-5-carboxylic acid [5-(7-isopropyl-7H-pyrrolo[2,3-d]pyrimidine-5-carbonyl)-pyridin-3-yl]-amide] gave an IC50 of 1.63 µM.

Cc1cccc2ncn(CC(=O)Nc3cncc(C(=O)c4cn(C(C)C)c5ncncc45)c3)c12 [Example 131, N-{5-[(7-isopropyl-7H-pyrrolo[2,3-d]pyrimidin-5-yl)carbonyl]pyridin-3-yl}-2-(7-methyl-1H-benzimidazol-1-yl)acetamide] showed an IC50 of 0.831 µM.

CC1(n2cc(C(=O)c3cncc(NC(=O)Cc4cccc(C(F)(F)F)c4)c3)c3cncnc32)COC1 [Example 572, N-{5-[7-(3-Methyl-oxetan-3-yl)-7H-pyrrolo[2,3-d]pyrimidine-5-carbonyl]-pyridin-3-yl}-2-(3-trifluoromethyl-phenyl)-acetamide] gave an IC50 of 0.0095 µM.

Cn1cc(C(=O)c2cncc(NC(=O)Cc3cc(F)ccc3F)c2)c2cncnc21 [Example 190, 2-(2,5-difluorophenyl)-N-{5-[(7-methyl-7H-pyrrolo[2,3-d]pyrimidin-5-yl)carbonyl]pyridin-3-yl}acetamide] was tested, and the IC50 was 0.82 µM.

CCc1nn2cc(CC(=O)Nc3cncc(C(=O)c4cn(C(C)C)c5ncncc45)c3)nc2s1 [Example 367, 2-(2-Ethyl-imidazo[2,1-b]-1,3,4-thiadiazol-6-yl)-N-[5-(7-isopropyl-7H-pyrrolo[2,3-d]pyrimidine-5-carbonyl)-pyridin-3-yl]-acetamide] showed an IC50 of 5.64 µM.

In the case of CC(C)n1cc(C(=O)c2cncc(NC(=O)Cc3ccc(Cl)cn3)c2)c2cncnc21 [Example 98, 2-(5-chloropyridin-2-yl)-N-{5-[(7-isopropyl-7H-pyrrolo[2,3-d]pyrimidin-5-yl)carbonyl]pyridin-3-yl}acetamide], the IC50 is reported as 0.00516 µM.

CC(C)n1cc(C(=O)c2cncc(NC(=O)Cc3cn4cc(Cl)ccc4n3)c2)c2cncnc21 [Example 126, 2-(6-chloroimidazo[1,2-a]pyridin-2-yl)-N-{5-[(7-isopropyl-7H-pyrrolo[2,3-d]pyrimidin-5-yl)carbonyl]pyridin-3-yl}acetamide] showed an IC50 of 0.0957 µM.

COc1cc(CC(=O)Nc2cncc(C(=O)c3cn(C(C)C)c4ncncc34)c2)ccc1C#N [Example 77, 2-(4-cyano-3-methoxyphenyl)-N-{5-[(7-isopropyl-7H-pyrrolo[2,3-d]pyrimidin-5-yl)carbonyl]pyridin-3-yl}acetamide] was tested, and the IC50 was 0.0643 µM.
